Here are results for six molecules from US20110034369A1, “Agonists of Bitter Taste Receptors and Uses Thereof” (DEUTSCHES INSTITUT FUR ERNAHRUNGSFORSCHUNG POTSDAM-REHBRUCKE, priority 2004, published 2011).

Common to all, as to assay type: cell-based
One assay has as its target T1, hTAS2R1 (Homo sapiens, UniProt Q9NYW7).
T1 construct: export tag: amino acids 1-45 of rat somatostatin receptor 3 (N); expressed in transfected cells; host or cells: HEK-293T cells stably expressing the chimeric G-protein subunit Galpha16gust44
T1 sequence (Q9NYW7 1-299): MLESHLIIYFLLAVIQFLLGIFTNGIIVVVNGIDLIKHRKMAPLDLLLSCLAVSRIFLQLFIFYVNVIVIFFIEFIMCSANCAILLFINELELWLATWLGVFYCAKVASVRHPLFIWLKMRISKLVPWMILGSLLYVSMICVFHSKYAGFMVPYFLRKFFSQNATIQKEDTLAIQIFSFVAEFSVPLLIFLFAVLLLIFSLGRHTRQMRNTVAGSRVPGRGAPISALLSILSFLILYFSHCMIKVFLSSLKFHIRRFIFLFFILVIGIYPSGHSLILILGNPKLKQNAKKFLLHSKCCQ
Nature of the assay: FLIPR calcium mobilization, hTAS2R1-transfected HEK-293T/Gα16gust44 cells. The following applies: response of hTAS2R1, calcium signal; for threshold: Fluo4-AM, transiently transfected HEK-293T Gα16gust44; for pEC50: dose-response. Background: Calcium flux is commonly read through the fluorescence of an indicator in the cells.

The next assay has as its target T2, hTAS2R3 (Homo sapiens, UniProt Q9NYW6).
T2 construct: export tag: amino acids 1-45 of rat somatostatin receptor 3 (N); expressed in transfected cells; host or cells: HEK-293T cells stably expressing the chimeric G-protein subunit Galpha16gust44
T2 sequence (Q9NYW6 1-316): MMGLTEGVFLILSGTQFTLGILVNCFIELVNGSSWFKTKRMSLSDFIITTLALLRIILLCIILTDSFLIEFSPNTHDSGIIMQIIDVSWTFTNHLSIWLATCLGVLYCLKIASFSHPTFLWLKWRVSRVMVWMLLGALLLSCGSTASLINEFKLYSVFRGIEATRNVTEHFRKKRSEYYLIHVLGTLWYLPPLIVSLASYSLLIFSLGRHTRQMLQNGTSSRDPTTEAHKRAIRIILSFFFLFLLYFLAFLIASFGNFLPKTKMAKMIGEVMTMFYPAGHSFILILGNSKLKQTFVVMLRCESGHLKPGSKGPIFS
The assay is described as follows: FLIPR calcium mobilization, hTAS2R3-transfected HEK-293T/Gα16gust44 cells. The note with it: response of hTAS2R3; calcium signal. As for the experimental part:
(§1) Ligand screening using an automated fluorometric imaging plate reader (Molecular Devices) was essentially done as described (Bufe B. et al. (2002) Nature Genetics 32: 397-401). Briefly: The cells were seeded at a density of 70,000±10,000 cells per well in 96-well microtiter plates. The cDNA of hTAS2R1, hTASR3, hTASR7 and hTASR40 supplemented with an amino terminal export tag corresponding to amino acids 1-45 of rat somatostatin receptor 3 and a carboxy terminal HSV-tag was transiently transfected into HEK-293T cells stably expressing the chimeric G-protein subunit Gα16gust44 (Ueda T. et al. (2003) J. Neurosci. 23: 7376-7380) using Lipofectamine2000 (Invitrogen). Expression rates were determined to be 20% for hTAS2R1; 35% for hTAS2R3, 14% for hTAS2R7 and 29% for hTAS2R40 by indirect immunocyclochemistry using monoclonal anti-HSV antibodies (Novagen) and secondary anti-mouse IgG antibodies coupled to Alexa 488 (Molecular probes) see (FIG. 1). 24-32 hours after transfection, the cells were then loaded for 1 hour with the calcium sensitive dye Fluo4-AM (2 μg/ml in DMEM, Molecular Probes). […] Calcium mobilization was monitored by an automated fluorometric imaging plate reader (Molecular Devices). […] For dose-response curves, the obtained calcium signals were corrected for and normalized to background fluorescence ΔF/F=(F−F0)/F0 and baseline noise was subtracted.

Another assay has as its target T3, hTAS2R7 (Homo sapiens, UniProt Q9NYW3).
T3 construct: export tag: amino acids 1-45 of rat somatostatin receptor 3 (N); expressed in transfected cells; host or cells: HEK-293T cells stably expressing the chimeric G-protein subunit Galpha16gust44
T3 sequence (Q9NYW3 1-318): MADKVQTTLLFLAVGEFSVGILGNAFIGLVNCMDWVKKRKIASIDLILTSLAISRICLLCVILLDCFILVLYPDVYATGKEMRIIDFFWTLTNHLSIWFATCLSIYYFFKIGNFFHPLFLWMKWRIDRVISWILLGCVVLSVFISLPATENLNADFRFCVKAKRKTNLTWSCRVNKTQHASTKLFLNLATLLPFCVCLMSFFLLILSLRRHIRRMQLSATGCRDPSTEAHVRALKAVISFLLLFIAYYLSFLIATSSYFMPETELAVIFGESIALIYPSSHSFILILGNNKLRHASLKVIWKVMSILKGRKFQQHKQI
Nature of the assay: FLIPR calcium mobilization, hTAS2R7-transfected HEK-293T/Gα16gust44 cells. The following applies: response of hTAS2R7, calcium signal. As for the experimental part:
Ligand screening using an automated fluorometric imaging plate reader (Molecular Devices) was essentially done as described (Bufe B. et al. (2002) Nature Genetics 32: 397-401). Briefly: The cells were seeded at a density of 70,000±10,000 cells per well in 96-well microtiter plates. The cDNA of hTAS2R1, hTASR3, hTASR7 and hTASR40 supplemented with an amino terminal export tag corresponding to amino acids 1-45 of rat somatostatin receptor 3 and a carboxy terminal HSV-tag was transiently transfected into HEK-293T cells stably expressing the chimeric G-protein subunit Gα16gust44 (Ueda T. et al. (2003) J. Neurosci. 23: 7376-7380) using Lipofectamine2000 (Invitrogen). Expression rates were determined to be 20% for hTAS2R1; 35% for hTAS2R3, 14% for hTAS2R7 and 29% for hTAS2R40 by indirect immunocyclochemistry using monoclonal anti-HSV antibodies (Novagen) and secondary anti-mouse IgG antibodies coupled to Alexa 488 (Molecular probes) see (FIG. 1). 24-32 hours after transfection, the cells were then loaded for 1 hour with the calcium sensitive dye Fluo4-AM (2 μg/ml in DMEM, Molecular Probes). Cells were washed 3× in solution C1 (130 mM NaCl, 5 mM KCl, 10 mM Hepes, 2 mM CaCl2, and 10 mM Glucose, pH 7.4). Calcium mobilization was monitored by an automated fluorometric imaging plate reader (Molecular Devices). Ligands (Sigma-Aldrich) were dissolved in C1 solution. All data were collected from experiments carried out in triplicate. For dose-response curves, the obtained calcium signals were corrected for and normalized to background fluorescence ΔF/F=(F−F0)/F0 and baseline noise was subtracted.

The target in another assay is T4, hTAS2R40 (Homo sapiens, UniProt P59535).
T4 construct: export tag: amino acids 1-45 of rat somatostatin receptor 3 (N); expressed in transfected cells; host or cells: HEK-293T cells stably expressing the chimeric G-protein subunit Galpha16gust44
T4 sequence (P59535 whole entry, the tested form may be a part): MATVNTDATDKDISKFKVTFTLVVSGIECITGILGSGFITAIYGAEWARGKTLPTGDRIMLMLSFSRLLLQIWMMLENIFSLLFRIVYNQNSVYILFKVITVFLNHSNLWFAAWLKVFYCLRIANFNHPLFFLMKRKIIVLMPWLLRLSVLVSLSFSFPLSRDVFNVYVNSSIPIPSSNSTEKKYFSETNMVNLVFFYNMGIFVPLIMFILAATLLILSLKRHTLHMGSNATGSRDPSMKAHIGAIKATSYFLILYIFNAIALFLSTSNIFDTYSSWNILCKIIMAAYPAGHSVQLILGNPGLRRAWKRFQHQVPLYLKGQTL
Nature of the assay: FLIPR calcium mobilization, hTAS2R40-transfected HEK-293T/Gα16gust44 cells. The following applies: response of hTAS2R40; calcium signal. As for the experimental part: as §1

pEC50: −log10 of the molar value.

Description for hTAS2R1: Ligand screening using an automated fluorometric imaging plate reader (Molecular Devices) was essentially done as described (Bufe B. et al. (2002) Nature Genetics 32: 397-401). Briefly: The cells were seeded at a density of 70,000±10,000 cells per well in 96-well microtiter plates. The cDNA of hTAS2R1, hTASR3, hTASR7 and hTASR40 supplemented with an amino terminal export tag corresponding to amino acids 1-45 of rat somatostatin receptor 3 and a carboxy terminal HSV-tag was transiently transfected into HEK-293T cells stably expressing the chimeric G-protein subunit Gα16gust44 (Ueda T. et al. (2003) J. Neurosci. 23: 7376-7380) using Lipofectamine2000 (Invitrogen). […] 24-32 hours after transfection, the cells were then loaded for 1 hour with the calcium sensitive dye Fluo4-AM (2 μg/ml in DMEM, Molecular Probes). Cells were washed 3× in solution C1 (130 mM NaCl, 5 mM KCl, 10 mM Hepes, 2 mM CaCl2, and 10 mM Glucose, pH 7.4). Calcium mobilization was monitored by an automated fluorometric imaging plate reader (Molecular Devices). Ligands (Sigma-Aldrich) were dissolved in C1 solution. All data were collected from experiments carried out in triplicate. For dose-response curves, the obtained calcium signals were corrected for and normalized to background fluorescence ΔF/F=(F−F0)/F0 and baseline noise was subtracted.

Usually pEC50 stands for −log10 of the EC50, conventionally taken in molar units. As to `O=C(N[C@H](CO)[C@H](O)c1ccc([N+](=O)[O-])cc1)C(Cl)Cl` [Chloramphenicol, chloramphenicol], on hTAS2R1, the max. amplitude is 9000 counts, the threshold was ~0.1 mM and the pEC50 is 3.70.
For the molecule `CN1CC(=O)NC1=N` [Creatinine, creatinine], on hTAS2R3, the max. amplitude is on record as 5000 counts and the threshold is on record as ~30 mM. Further, on hTAS2R7, the max. amplitude is reported as 3000 counts and the threshold is given as ~10 mM.
Consider `O=C(O)c1cc(=O)c2c(OCC(O)COc3cccc4oc(C(=O)O)cc(=O)c34)cccc2o1` [Cromolyn, cromolyn], for which, at hTAS2R7, the max. amplitude came out at 3000 counts and the threshold is ~1 mM. The pEC50 at hTAS2R7 (dose-response) is 2.05.
Consider `C=C(C)[C@@H]1[C@H]2OC(=O)[C@@H]1[C@]1(O)C[C@H]3O[C@]34C(=O)O[C@H]2[C@]14C` [Picrotoxinin, picrotoxinin], for which, on hTAS2R1, the max. amplitude amounted to 2000 counts and the threshold is ~0.0001 mM.
`COC(=O)[C@@H]1[C@H]2C[C@H]3c4[nH]c5ccccc5c4CCN3C[C@@H]2CC[C@@H]1O` [Yohimbine, yohimbine]: at hTAS2R1, the max. amplitude was found to be 3000 counts and the threshold is reported as ~0.03 mM.
For humulone, at hTAS2R40, the max. amplitude came out at 6000 counts and the threshold is on record as <0.00003 mM. For the same molecule, at hTAS2R1, the max. amplitude was 9000 counts, the threshold is given as ~0.0001 mM and the pEC50 was 6.05.
